Broadly, the inhibition is how much of the control response was suppressed. Broadly, the Km is the substrate concentration at which the rate is half of its maximum.

From paper PMC7150767, “Monocarboxylate Transporter 6-Mediated Interactions with Prostaglandin F2α: In Vitro and In Vivo Evidence Utilizing a Knockout Mouse Model” (Pharmaceutics, 2020) come the findings set out here.

In data set [1] the target is T1, human monocarboxylate transporter 6 (hMCT6) (Homo sapiens, UniProt O15375).
T1 construct: gene SLC16A5
T1 sequence (O15375 1-505): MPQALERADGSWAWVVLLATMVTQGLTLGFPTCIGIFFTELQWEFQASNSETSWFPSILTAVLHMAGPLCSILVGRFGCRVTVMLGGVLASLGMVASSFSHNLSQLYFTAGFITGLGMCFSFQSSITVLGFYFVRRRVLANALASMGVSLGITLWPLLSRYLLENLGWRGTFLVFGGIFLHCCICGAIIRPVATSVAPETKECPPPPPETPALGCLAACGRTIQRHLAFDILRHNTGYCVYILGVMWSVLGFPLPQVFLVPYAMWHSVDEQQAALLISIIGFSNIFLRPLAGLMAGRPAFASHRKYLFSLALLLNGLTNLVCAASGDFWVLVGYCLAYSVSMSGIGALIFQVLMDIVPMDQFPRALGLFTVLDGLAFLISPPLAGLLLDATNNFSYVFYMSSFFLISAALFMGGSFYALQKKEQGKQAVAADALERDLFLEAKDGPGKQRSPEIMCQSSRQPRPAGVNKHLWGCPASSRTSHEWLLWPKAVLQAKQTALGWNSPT
Put plainly: cis-inhibition of [3H]PGF2α uptake in oocytes at […]. In kind it is cell-based. The settings on record: read-out: % inhibition at 10 μM (range over the PGs).

Data set [2] deals with T2, murine monocarboxylate transporter 6 (mMct6) (Mus musculus, UniProt G5E8K6).
T2 construct: gene Slc16a5; full-length, untagged, cRNA in Xenopus laevis oocytes
T2 sequence (G5E8K6 1-468): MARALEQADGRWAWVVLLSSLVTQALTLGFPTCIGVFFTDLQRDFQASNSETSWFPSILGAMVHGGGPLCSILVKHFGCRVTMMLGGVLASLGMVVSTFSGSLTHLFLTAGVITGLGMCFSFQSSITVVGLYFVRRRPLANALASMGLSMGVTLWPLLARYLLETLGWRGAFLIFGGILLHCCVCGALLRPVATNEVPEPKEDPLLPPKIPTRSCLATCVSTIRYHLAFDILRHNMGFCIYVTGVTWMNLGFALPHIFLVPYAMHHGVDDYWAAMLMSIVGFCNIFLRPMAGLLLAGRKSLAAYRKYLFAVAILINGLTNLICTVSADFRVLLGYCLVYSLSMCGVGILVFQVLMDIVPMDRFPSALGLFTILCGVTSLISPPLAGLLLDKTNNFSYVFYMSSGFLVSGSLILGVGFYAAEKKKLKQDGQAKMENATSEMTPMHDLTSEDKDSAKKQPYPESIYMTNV
Put plainly: cis-inhibition of [3H]PGF2α uptake in oocytes, […] ([…] inhibition). In kind it is cell-based.

In data set [3] the target is T1, human monocarboxylate transporter 6 (hMCT6). Put plainly: cis-inhibition of [3H]PGF2α uptake in oocytes. In kind it is cell-based.
In data set [4] the target is T2, murine monocarboxylate transporter 6 (mMct6). Put plainly: cis-inhibition of [3H]PGF2α uptake in oocytes, […] ([…] inhibition). In kind it is cell-based. This is another data set of the same source.
Substrate in data set [5]: CCCCC[C@H](O)/C=C/[C@@H]1[C@@H](C/C=C\CCCC(=O)O)[C@@H](O)C[C@H]1O
Put plainly: cells, lysate or membranes. In kind it is cell-based, Mus musculus. The note with it: pH 7.4.

Substrate in data set [6]: CCCCC[C@H](O)/C=C/[C@@H]1[C@@H](C/C=C\CCCC(=O)O)[C@@H](O)C[C@H]1O
Put plainly: cells, lysate or membranes. In kind it is cell-based, Homo sapiens. The note with it: pH 7.4.

Take `CCCCC[C@H](O)/C=C/[C@@H]1[C@@H](CC(=O)CCCCC(=O)O)[C@@H](O)C[C@H]1O` [6-keto prostaglandin F1α]: in data set [1], the inhibition at 10 µM lay within 51 to 74%.

Turning to `CCCCNc1cc(C(=O)O)cc(S(N)(=O)=O)c1Oc1ccccc1` [bumetanide], in data set [2], the inhibition at 10 µM is ~28%. The “cis-inhibition of [3H]PGF2α uptake in oocytes” value in data set [3] was “Bumetanide and probenecid also inhibited human MCT6-mediated PGF2α uptake”.

As to `CCCN(CCC)S(=O)(=O)c1ccc(C(=O)O)cc1` [probenecid], the inhibition at 500 µM in data set [4] is ~94%. For the same molecule, the “cis-inhibition of [3H]PGF2α uptake in oocytes” value in data set [3] was “Bumetanide and probenecid also inhibited human MCT6-mediated PGF2α uptake”.

Take `CCCCC[C@H](O)/C=C/[C@H]1C(=O)C[C@H](O)[C@@H]1C/C=C\CCCC(=O)O` [prostaglandin D2]: in data set [1], the inhibition at 10 µM lay in the range of 51 to 74%.

Consider `CCCCC[C@H](O)/C=C/[C@H]1[C@H](O)CC(=O)[C@@H]1C/C=C\CCCC(=O)O` [prostaglandin E2], for which, in data set [1], the inhibition at 10 µM lay in the range of 51 to 74%.

B1: murine monocarboxylate transporter 6 (mMct6) (Mus musculus) (protein)
chain: MARALEQADGRWAWVVLLSSLVTQALTLGFPTCIGVFFTDLQRDFQASNSETSWFPSILGAMVHGGGPLCSILVKHFGCRVTMMLGGVLASLGMVVSTFSGSLTHLFLTAGVITGLGMCFSFQSSITVVGLYFVRRRPLANALASMGLSMGVTLWPLLARYLLETLGWRGAFLIFGGILLHCCVCGALLRPVATNEVPEPKEDPLLPPKIPTRSCLATCVSTIRYHLAFDILRHNMGFCIYVTGVTWMNLGFALPHIFLVPYAMHHGVDDYWAAMLMSIVGFCNIFLRPMAGLLLAGRKSLAAYRKYLFAVAILINGLTNLICTVSADFRVLLGYCLVYSLSMCGVGILVFQVLMDIVPMDRFPSALGLFTILCGVTSLISPPLAGLLLDKTNNFSYVFYMSSGFLVSGSLILGVGFYAAEKKKLKQDGQAKMENATSEMTPMHDLTSEDKDSAKKQPYPESIYMTNV
notes: full-length, untagged, cRNA (NM_001080934.1) in Xenopus laevis oocytes
Turning to B1, the Michaelis constant (Km) in data set [5] was 40.1 µM.

B2: human monocarboxylate transporter 6 (hMCT6) (Homo sapiens) (protein)
chain: MPQALERADGSWAWVVLLATMVTQGLTLGFPTCIGIFFTELQWEFQASNSETSWFPSILTAVLHMAGPLCSILVGRFGCRVTVMLGGVLASLGMVASSFSHNLSQLYFTAGFITGLGMCFSFQSSITVLGFYFVRRRVLANALASMGVSLGITLWPLLSRYLLENLGWRGTFLVFGGIFLHCCICGAIIRPVATSVAPETKECPPPPPETPALGCLAACGRTIQRHLAFDILRHNTGYCVYILGVMWSVLGFPLPQVFLVPYAMWHSVDEQQAALLISIIGFSNIFLRPLAGLMAGRPAFASHRKYLFSLALLLNGLTNLVCAASGDFWVLVGYCLAYSVSMSGIGALIFQVLMDIVPMDQFPRALGLFTVLDGLAFLISPPLAGLLLDATNNFSYVFYMSSFFLISAALFMGGSFYALQKKEQGKQAVAADALERDLFLEAKDGPGKQRSPEIMCQSSRQPRPAGVNKHLWGCPASSRTSHEWLLWPKAVLQAKQTALGWNSPT
notes: pGH19-hMCT6 cRNA in Xenopus laevis oocytes
As to B2, in data set [6], the Km worked out at 246 µM.
